Measured values from ChEMBL document CHEMBL1933028, “Discovery of cyclic amine-substituted benzoic acids as PPARα agonists” (Bioorg Med Chem Lett, 2012).
Changes are numbered by the printed parent chain.

What was measured:
Canis familiaris [1] = assay: Toxicity in high-fat diet fed dog assessed as change in body weight at 0.01 mg/kg, po administered QD for 1 week (reference value: 14.8 +/- 0.7 kg); type: organism-based, Canis lupus familiaris; parameters: dose 0.01 mg/kg, route oral; conditions: in vivo, 168 h
Canis familiaris [2] = assay: Antidyslipidemic activity in high-fat diet fed dog assessed as decrease in free fatty acid at 0.03 mg/kg, po administered QD for 1 week (reference value: 0.624 +/- 0.057 mEq/L); type: functional, Canis lupus familiaris
Canis familiaris [3] = assay: Antidyslipidemic activity in high-fat diet fed dog assessed as decrease in serum triglyceride level at 0.01 mg/kg, po administered QD for 1 week (reference value: 98 +/- 4 mg/dL); type: functional, Canis lupus familiaris
[4] = biological target: T1, Peroxisome proliferator-activated receptor gamma (Mus musculus, UniProt P37238); assay: Agonist activity at mouse PPARgamma; type: functional
T1 sequence (P37238 whole entry): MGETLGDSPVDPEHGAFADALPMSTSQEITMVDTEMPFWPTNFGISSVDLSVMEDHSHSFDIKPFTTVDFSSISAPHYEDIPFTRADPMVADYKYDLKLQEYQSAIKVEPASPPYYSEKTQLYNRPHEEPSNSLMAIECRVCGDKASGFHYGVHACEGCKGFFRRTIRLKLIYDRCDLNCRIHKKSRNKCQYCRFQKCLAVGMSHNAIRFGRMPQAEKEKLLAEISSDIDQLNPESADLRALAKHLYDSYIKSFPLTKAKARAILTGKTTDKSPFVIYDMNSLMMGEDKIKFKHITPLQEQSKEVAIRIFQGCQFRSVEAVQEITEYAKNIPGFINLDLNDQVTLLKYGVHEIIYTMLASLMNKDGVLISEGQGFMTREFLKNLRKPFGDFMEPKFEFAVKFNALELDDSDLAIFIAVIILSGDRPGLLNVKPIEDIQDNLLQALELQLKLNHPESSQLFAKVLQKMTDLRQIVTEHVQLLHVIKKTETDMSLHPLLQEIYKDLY

[5] = biological target: T2, Peroxisome proliferator-activated receptor delta (Canis lupus familiaris, UniProt Q0ZAQ8); assay: Agonist activity at dog PPARdelta; type: functional
T2 sequence (Q0ZAQ8 whole entry): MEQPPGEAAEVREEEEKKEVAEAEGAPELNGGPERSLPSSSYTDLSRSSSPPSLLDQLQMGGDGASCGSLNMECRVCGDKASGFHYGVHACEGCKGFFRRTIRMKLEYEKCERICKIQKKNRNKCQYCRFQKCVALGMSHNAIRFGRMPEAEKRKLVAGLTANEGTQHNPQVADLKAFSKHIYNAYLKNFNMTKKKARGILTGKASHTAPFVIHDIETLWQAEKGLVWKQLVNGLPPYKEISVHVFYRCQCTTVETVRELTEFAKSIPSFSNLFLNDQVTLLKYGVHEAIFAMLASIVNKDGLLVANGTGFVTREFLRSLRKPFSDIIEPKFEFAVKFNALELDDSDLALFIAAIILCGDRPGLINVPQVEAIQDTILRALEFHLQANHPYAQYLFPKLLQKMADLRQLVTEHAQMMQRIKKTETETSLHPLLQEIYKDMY

Canis familiaris [6] = assay: Antidyslipidemic activity in high-fat diet fed dog assessed as decrease in serum triglyceride level at 0.003 mg/kg, po administered QD for 1 week (reference value: 98 +/- 4 mg/dL); type: functional, Canis lupus familiaris
[7] = biological target: T3, Peroxisome proliferator-activated receptor delta (Mus musculus, UniProt P35396); assay: Agonist activity at mouse PPARdelta; type: functional
T3 sequence (P35396 whole entry): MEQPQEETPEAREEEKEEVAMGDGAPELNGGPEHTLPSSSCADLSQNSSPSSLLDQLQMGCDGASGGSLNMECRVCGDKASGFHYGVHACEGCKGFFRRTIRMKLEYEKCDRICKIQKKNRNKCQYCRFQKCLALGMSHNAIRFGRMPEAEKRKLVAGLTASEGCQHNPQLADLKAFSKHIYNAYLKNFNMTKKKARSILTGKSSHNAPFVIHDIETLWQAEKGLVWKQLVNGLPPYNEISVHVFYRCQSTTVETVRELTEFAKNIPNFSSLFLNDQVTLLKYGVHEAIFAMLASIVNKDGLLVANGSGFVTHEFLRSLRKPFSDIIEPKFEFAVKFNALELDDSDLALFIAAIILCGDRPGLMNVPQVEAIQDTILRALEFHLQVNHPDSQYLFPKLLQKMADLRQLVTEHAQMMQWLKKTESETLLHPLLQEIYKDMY

[8] = biological target: T4, Peroxisome proliferator-activated receptor gamma (Homo sapiens, UniProt P37231); assay: Transactivation of human PPARgamma expressed in CHO-K1 cells; type: cell-based
T4 sequence (P37231 whole entry): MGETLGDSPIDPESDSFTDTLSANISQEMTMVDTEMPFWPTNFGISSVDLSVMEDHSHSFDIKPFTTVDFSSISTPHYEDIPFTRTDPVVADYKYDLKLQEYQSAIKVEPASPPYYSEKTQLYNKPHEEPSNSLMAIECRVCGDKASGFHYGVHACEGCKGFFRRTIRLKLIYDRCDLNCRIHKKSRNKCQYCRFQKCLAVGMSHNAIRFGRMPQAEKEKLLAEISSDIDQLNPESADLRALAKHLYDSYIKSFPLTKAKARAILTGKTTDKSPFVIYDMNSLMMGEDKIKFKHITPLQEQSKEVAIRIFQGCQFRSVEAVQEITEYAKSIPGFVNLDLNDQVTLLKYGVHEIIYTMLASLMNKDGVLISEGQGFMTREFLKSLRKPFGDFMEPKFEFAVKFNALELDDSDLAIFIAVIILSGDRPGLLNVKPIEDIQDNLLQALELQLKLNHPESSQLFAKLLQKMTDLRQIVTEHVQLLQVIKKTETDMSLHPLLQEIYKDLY

[9] = Agonist activity at rat PPARdelta; type: functional
Canis familiaris [10] = assay: Antidyslipidemic activity in high-fat diet fed dog assessed as decrease in free fatty acid at 0.003 mg/kg, po administered QD for 1 week (reference value: 0.624 +/- 0.057 mEq/L); type: functional, Canis lupus familiaris
[11] = biological target: T5, Peroxisome proliferator-activated receptor gamma (Rattus norvegicus, UniProt O88275); assay: Agonist activity at rat PPARgamma; type: functional
T5 sequence (O88275 whole entry): T1 sequence (P37238 whole entry) with S8P, E54D, N383S

[12] = Oral bioavailability in dog at 0.3 mg/kg; type: ADME, organism-based, Canis lupus familiaris; conditions: in vivo

For `Cc1nc(-c2ccc(Cl)cc2)sc1C(=O)N[C@H]1CCCN(c2cccc(C(=O)O)c2)C1`, the Activity (Canis familiaris [1]) was 14.8 kg, the Activity (Canis familiaris [2]) was 0.576 mEq/L and the Activity (Canis familiaris [3]) was 48 mg/dL. The EC50 [4] was 12 µM, the EC50 [5] was 2.7 µM and the Activity (Canis familiaris [6]) was 64 mg/dL. For the same compound, the EC50 [7] was 6.6 µM, the EC50 [8] was 9.6 µM and the EC50 [9] was > 14 µM. For the same compound, the Activity (Canis familiaris [10]) was 0.607 mEq/L, the EC50 [11] was 13 µM and the bioavailability [12] was 73.1%.
